{
  "source": "patent US20030004157A1",
  "about": "“Use of NK-1 receptor antagonists against benign prostatic hyperplasia” (priority 2001, published 2003)",
  "system": "Beagle dogs",
  "assay": "39-week toxicity study in the dog",
  "type": "in vivo",
  "conditions": "39 weeks; for PROSTATE diff. % vs. control (relative organ weight) / PROSTATE per 100 g BW relative (mean relative organ weight) / TESTES diff. % vs. control (relative organ weight) / TESTES per 100 g BW relative (mean relative organ weight) / PROSTATE absolute (mean absolute organ weight) / TESTES absolute (mean absolute organ weight): male Beagle dogs, oral gavage, SEDDS formulation; for PROSTATE absolute (mean absolute organ weight) / TESTES absolute (mean absolute organ weight): in g (unit assumed); for reduced weights of the prostate gland compared to the control / microscopic changes of the prostate (animals affected): males",
  "procedure": "In a nine-month study four groups of Beagle dogs (4 animals/gender/group; 5-6 months of age at study start) received oral doses (gavage) of 0 (placebo), 6, 20 and 60 mg/kg/d of 2-(3,5-bis-trifluoromethyl-phenyl)-N-methyl-N-(6-morpholin-4-yl-4-o-tolyl-pyridin-3-yl)-isobutyramide as a SEDDS formulation for 39 weeks. The following variables were investigated: clinical signs, body weights, food consumption, ophthalmoscopy before and at the end of the study, electrocardiography, heart rate, toxicokinetics at different time-points, clinical pathology (hematology, biochemistry, urinalysis) in 3-months intervals, necropsy and tissue preservation, organ weights and histopathology.\nMean absolute organ weights were adjusted to 100 g of the mean terminal body weights=>mean relative organ weights.\nMean relative organ weights were compared to the corresponding control=>% deviation.",
  "data": [
    {"smiles": "Cc1ccccc1-c1cc(N2CCOCC2)ncc1N(C)C(=O)C(C)(C)c1cc(C(F)(F)F)cc(C(F)(F)F)c1", "note": "[2-(3,5-bis-trifluoromethyl-phenyl)-N-methyl-N-(6-morpholin-4-yl-4-o-tolyl-pyridin-3-yl)-isobutyramide]", "values": [
      {"measurement": "abnormalities in organ systems other than prostate", "setting": "6, 20 and 60 mg/kg/d oral", "value": "no overt abnormalities in any other organ system"},
      {"measurement": "liver changes", "setting": "6, 20 and 60 mg/kg/d oral", "value": "Mild changes in the liver (hepatocyte hypertrophy with slightly increased organ weights)"},
      {"measurement": "PROSTATE diff. % vs. control (relative organ weight)", "setting": "6 mg/kg/d", "value": "−24", "unit": "%"},
      {"measurement": "PROSTATE per 100 g BW relative (mean relative organ weight)", "setting": "6 mg/kg/d", "value": 0.059},
      {"measurement": "TESTES diff. % vs. control (relative organ weight)", "setting": "6 mg/kg/d", "value": "+1%"},
      {"measurement": "TESTES per 100 g BW relative (mean relative organ weight)", "setting": "6 mg/kg/d", "value": 0.1803},
      {"measurement": "PROSTATE absolute (mean absolute organ weight)", "setting": "6 mg/kg/d", "value": 8.066},
      {"measurement": "TESTES absolute (mean absolute organ weight)", "setting": "6 mg/kg/d", "value": 24.577},
      {"measurement": "PROSTATE diff. % vs. control (relative organ weight)", "setting": "20 mg/kg/d", "value": "−37", "unit": "%"},
      {"measurement": "PROSTATE per 100 g BW relative (mean relative organ weight)", "setting": "20 mg/kg/d", "value": 0.049},
      {"measurement": "TESTES diff. % vs. control (relative organ weight)", "setting": "20 mg/kg/d", "value": "+6%"},
      {"measurement": "TESTES per 100 g BW relative (mean relative organ weight)", "setting": "20 mg/kg/d", "value": 0.1804},
      {"measurement": "PROSTATE absolute (mean absolute organ weight)", "setting": "20 mg/kg/d", "value": 6.413},
      {"measurement": "TESTES absolute (mean absolute organ weight)", "setting": "20 mg/kg/d", "value": 23.432},
      {"measurement": "PROSTATE diff. % vs. control (relative organ weight)", "setting": "60 mg/kg/d", "value": "−58", "unit": "%"},
      {"measurement": "PROSTATE per 100 g BW relative (mean relative organ weight)", "setting": "60 mg/kg/d", "value": 0.033},
      {"measurement": "TESTES diff. % vs. control (relative organ weight)", "setting": "60 mg/kg/d", "value": "+9%"},
      {"measurement": "TESTES per 100 g BW relative (mean relative organ weight)", "setting": "60 mg/kg/d", "value": 0.1853},
      {"measurement": "PROSTATE absolute (mean absolute organ weight)", "setting": "60 mg/kg/d", "value": 4.429},
      {"measurement": "TESTES absolute (mean absolute organ weight)", "setting": "60 mg/kg/d", "value": 24.753},
      {"measurement": "reduced weights of the prostate gland compared to the control", "setting": "6 mg/kg/d oral", "value": "insignificant trend"},
      {"measurement": "microscopic changes of the prostate (animals affected)", "setting": "20 mg/kg/d oral", "value": "most"},
      {"measurement": "reduced weights of the prostate gland compared to the control", "setting": "20 mg/kg/d oral", "value": 37, "unit": "%"},
      {"measurement": "microscopic changes of the prostate (animals affected)", "setting": "60 mg/kg/d oral", "value": "all males"},
      {"measurement": "reduced weights of the prostate gland compared to the control", "setting": "60 mg/kg/d oral", "value": 58, "unit": "%"}
    ]}
  ]
}
